Assays:
Assay in all cases: relative viability (nuclei count vs DMSO), 5 days (fraction); higher = more cells survive
NCI-H1792 = tested on: NCI-H1792
Outline: (§1)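 Lung cancer cell lines in 1536-well plates got either a single drug or a fixed anchor-drug dose together with five library-drug doses (not always all listed) in √10 steps, by pin tool, on the day after seeding. Nuclei were counted after 5 days, and relative viability is the treated-to-vehicle ratio of nuclei counts. Values are medians of duplicate plates.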

NCI-H2087 = tested on: NCI-H2087
Outline: as §1

SW 1573 = tested on: SW 1573
Outline: as §1

NCI-H1650 = tested on: NCI-H1650
Outline: as §1

NCI-H2126 = tested on: NCI-H2126
Outline: as §1

LU99A = tested on: LU99A
Outline: as §1

NCI-H1944 = tested on: NCI-H1944
Outline: as §1

NCI-H727 = tested on: NCI-H727
Outline: as §1

RERF-LC-KJ = tested on: RERF-LC-KJ
Outline: as §1

EPLC-272H = tested on: EPLC-272H
Outline: as §1

LCLC-97TM1 = tested on: LCLC-97TM1
Outline: as §1

BEN = tested on: BEN
Outline: as §1

LK-2 = tested on: LK-2
Outline: as §1

NCI-H358 = tested on: NCI-H358
Outline: as §1

NCI-H1734 = tested on: NCI-H1734
Outline: as §1

SK-MES-1 = tested on: SK-MES-1
Outline: as §1

HCC-827 = tested on: HCC-827
Outline: as §1

ChaGo-K-1 = tested on: ChaGo-K-1
Outline: as §1

EKVX = tested on: EKVX
Outline: as §1

COR-L 105 = tested on: COR-L 105
Outline: as §1

LOU-NH91 = tested on: LOU-NH91
Outline: as §1

EMC-BAC-2 = tested on: EMC-BAC-2
Outline: as §1

## O=C(O)CCCCC(CCSCc1ccccc1)SCc1ccccc1 (stereo not given) [CPI-613] + CCNC(=O)c1noc(-c2cc(C(C)C)c(O)cc2O)c1-c1ccc(CN2CCOCC2)cc1 [Luminespib] (partner 0.01 µM)
NCI-H1792; first compound 5 µM
  relative viability: 0.512
NCI-H1792; first compound 15.81 µM
  relative viability: 0.396
NCI-H1792; first compound 50 µM
  relative viability: 0.375
NCI-H1792; first compound 158.11 µM
  relative viability: 0.353
NCI-H1792; first compound 500 µM
  relative viability: 0.39
NCI-H2087; first compound 5 µM
  relative viability: 0.182
NCI-H2087; first compound 15.81 µM
  relative viability: 0.165
NCI-H2087; first compound 50 µM
  relative viability: 0.155
NCI-H2087; first compound 158.11 µM
  relative viability: 0.0422
NCI-H2087; first compound 500 µM
  relative viability: 0.026
SW 1573; first compound 5 µM
  relative viability: 0.254
SW 1573; first compound 15.81 µM
  relative viability: 0.295
SW 1573; first compound 50 µM
  relative viability: 0.138
SW 1573; first compound 158.11 µM
  relative viability: 0.0967
SW 1573; first compound 500 µM
  relative viability: 0.0725
NCI-H1650; first compound 5 µM
  relative viability: 0.213
NCI-H1650; first compound 15.81 µM
  relative viability: 0.224
NCI-H1650; first compound 50 µM
  relative viability: 0.194
NCI-H1650; first compound 158.11 µM
  relative viability: 0.168
NCI-H1650; first compound 500 µM
  relative viability: 0.0166
NCI-H2126; first compound 5 µM
  relative viability: 0.906
NCI-H2126; first compound 15.81 µM
  relative viability: 0.83
NCI-H2126; first compound 50 µM
  relative viability: 0.85
NCI-H2126; first compound 158.11 µM
  relative viability: 0.223
NCI-H2126; first compound 500 µM
  relative viability: 0.053
LU99A; first compound 5 µM
  relative viability: 0.296
LU99A; first compound 15.81 µM
  relative viability: 0.222
LU99A; first compound 50 µM
  relative viability: 0.243
LU99A; first compound 158.11 µM
  relative viability: 0.159
LU99A; first compound 500 µM
  relative viability: 0.115
NCI-H1944; first compound 5 µM
  relative viability: 0.748
NCI-H1944; first compound 15.81 µM
  relative viability: 0.701
NCI-H1944; first compound 50 µM
  relative viability: 0.757
NCI-H1944; first compound 158.11 µM
  relative viability: 0.409
NCI-H1944; first compound 500 µM
  relative viability: 0.0599
NCI-H727; first compound 5 µM
  relative viability: 0.274
NCI-H727; first compound 15.81 µM
  relative viability: 0.641
NCI-H727; first compound 50 µM
  relative viability: 0.286
NCI-H727; first compound 158.11 µM
  relative viability: 0.188
NCI-H727; first compound 500 µM
  relative viability: 0.115
RERF-LC-KJ; first compound 5 µM
  relative viability: 1.28
RERF-LC-KJ; first compound 15.81 µM
  relative viability: 1.22
RERF-LC-KJ; first compound 50 µM
  relative viability: 1.23
RERF-LC-KJ; first compound 158.11 µM
  relative viability: 0.235
RERF-LC-KJ; first compound 500 µM
  relative viability: 0.198
EPLC-272H; first compound 5 µM
  relative viability: 0.338
EPLC-272H; first compound 15.81 µM
  relative viability: 0.32
EPLC-272H; first compound 50 µM
  relative viability: 0.575
EPLC-272H; first compound 158.11 µM
  relative viability: 0.0624
EPLC-272H; first compound 500 µM
  relative viability: 0.0121
LCLC-97TM1; first compound 5 µM
  relative viability: 0.641
LCLC-97TM1; first compound 15.81 µM
  relative viability: 0.71
LCLC-97TM1; first compound 50 µM
  relative viability: 0.737
LCLC-97TM1; first compound 158.11 µM
  relative viability: 0.188
LCLC-97TM1; first compound 500 µM
  relative viability: 0.0176
BEN; first compound 5 µM
  relative viability: 0.619
BEN; first compound 15.81 µM
  relative viability: 0.362
BEN; first compound 50 µM
  relative viability: 0.484
BEN; first compound 158.11 µM
  relative viability: 0.292
BEN; first compound 500 µM
  relative viability: 0.149
LK-2; first compound 5 µM
  relative viability: 0.19
LK-2; first compound 15.81 µM
  relative viability: 0.198
LK-2; first compound 50 µM
  relative viability: 0.189
LK-2; first compound 158.11 µM
  relative viability: 0.153
LK-2; first compound 500 µM
  relative viability: 0.172
NCI-H358; first compound 5 µM
  relative viability: 0.287
NCI-H358; first compound 15.81 µM
  relative viability: 0.249
NCI-H358; first compound 50 µM
  relative viability: 0.356
NCI-H358; first compound 158.11 µM
  relative viability: 0.414
NCI-H358; first compound 500 µM
  relative viability: 0.408
NCI-H1734; first compound 5 µM
  relative viability: 0.197
NCI-H1734; first compound 15.81 µM
  relative viability: 0.194
NCI-H1734; first compound 50 µM
  relative viability: 0.164
NCI-H1734; first compound 158.11 µM
  relative viability: 0.165
NCI-H1734; first compound 500 µM
  relative viability: 0.107
SK-MES-1; first compound 5 µM
  relative viability: 0.772
SK-MES-1; first compound 15.81 µM
  relative viability: 0.659
SK-MES-1; first compound 50 µM
  relative viability: 0.666
SK-MES-1; first compound 158.11 µM
  relative viability: 0.163
SK-MES-1; first compound 500 µM
  relative viability: 0.0794
HCC-827; first compound 5 µM
  relative viability: 0.416
HCC-827; first compound 15.81 µM
  relative viability: 0.615
HCC-827; first compound 50 µM
  relative viability: 0.774
HCC-827; first compound 158.11 µM
  relative viability: 0.633
HCC-827; first compound 500 µM
  relative viability: 0.329
ChaGo-K-1; first compound 5 µM
  relative viability: 0.533
ChaGo-K-1; first compound 15.81 µM
  relative viability: 0.61
ChaGo-K-1; first compound 50 µM
  relative viability: 0.596
ChaGo-K-1; first compound 158.11 µM
  relative viability: 0.204
ChaGo-K-1; first compound 500 µM
  relative viability: 0.11
EKVX; first compound 5 µM
  relative viability: 0.834
EKVX; first compound 15.81 µM
  relative viability: 0.881
EKVX; first compound 50 µM
  relative viability: 0.864
EKVX; first compound 158.11 µM
  relative viability: 0.814
EKVX; first compound 500 µM
  relative viability: 0.803
COR-L 105; first compound 5 µM
  relative viability: 0.749
COR-L 105; first compound 15.81 µM
  relative viability: 0.727
COR-L 105; first compound 50 µM
  relative viability: 0.692
COR-L 105; first compound 158.11 µM
  relative viability: 0.421
COR-L 105; first compound 500 µM
  relative viability: 0.127
LOU-NH91; first compound 5 µM
  relative viability: 0.344
LOU-NH91; first compound 15.81 µM
  relative viability: 0.325
LOU-NH91; first compound 50 µM
  relative viability: 0.323
LOU-NH91; first compound 158.11 µM
  relative viability: 0.309
LOU-NH91; first compound 500 µM
  relative viability: 0.34
EMC-BAC-2; first compound 5 µM
  relative viability: 1.15
EMC-BAC-2; first compound 15.81 µM
  relative viability: 1.08
EMC-BAC-2; first compound 50 µM
  relative viability: 1.16
EMC-BAC-2; first compound 158.11 µM
  relative viability: 0.396
EMC-BAC-2; first compound 500 µM
  relative viability: 0.0424

Reference: the supplement of paper PMC10307832
